From PubChem BioAssay AID1963844 (Molecular Pharmacology Branch, DTP, NCI, 2024)

Tested on: 422866-222-R5-J1-PDC complex spheroid viability
Test: Anticancer human tumor 422866-222-R5-J1-PDC patient-derived pancreatic adenocarcinoma cell line growth inhibition [POLQ]
Conditions: for IC50: curve of first compound; for viability, T/C: stronger effect = lower value
Description: Multicellular complex tumor spheroid response to Polymerase (POL) inhibitors (novobiocin, ART-558, RP6685) in combination with a variety of drugs and investigational agents in selected tumor cell lines
The POL inhibitors (novobiocin, ART-558, and RP6685) were evaluated both individually and in combination with standard of care and investigational anticancer small molecules within a complex spheroid model of solid tumors. . Complex spheroids include a stromal component modeled by human endothelial cells (HUVEC) and fibroblasts modeled by human mesenchymal stem cells (MSCs). The concentration ranges selected for each drug and investigational agent were based upon clinically achievable concentrations if the clinical Cmax of the agent was known.
Compounds. The drugs and investigational agents: novobiocin (NSC847541), ART-558 (NSC835418), RP-6685 (NSC848927), peposertib (NSC802822), ceralasertib (NSC780249), elimusertib (NSC800525), camonsertib (NSC841442), AZD-1390 (NSC803789), olaparib (NSC753686), talazoparib (NSC767125), rucaparib (NSC756644), sotorasib (NSC818433), MRTX-1133 (NSC836407), SN-38 (NSC673596), topotecan (NSC609699), epotoside (NSC141540), doxorubicin (NSC123127), gemcitabine (NSC613327), 5-fluorouracil (NSC19893), paclitaxel (NSC125973), vemurafenib (NSC761431), MSA-2 (NSC828583), SN-011 (NSC837082), adavosertib (NSC754352), prexasertib (NSC758257), carboplatin (NSC241240) and oxaliplatin (NSC266046), were obtained from the National Cancer Institute (NCI) Developmental Therapeutics Program Chemical Repository (21). The FDA-approved anticancer drug set is available from the Developmental Therapeutics Program at https://dtp.cancer.gov/organization/dscb/obtaining/. […] The stock solutions were prepared in dimethyl sulfoxide (DMSO, Sigma-Aldrich, St. Louis, MO, cat. D2650), except for the platinum compounds which were prepared in saline (Quality Biological, Gaithersburg, MD, cat. 114-055-101), at 800-fold the tested concentration and stored at -70 degrees C prior to their use. All drugs and investigational agents were tested over a range starting from a high concentration at or near the clinical Cmax and decreasing in half-log increments. If the clinical Cmax for an agent had not been determined, the highest concentration tested was 10 microM, except for SN-38, which was tested at a high concentration of 1 microM.
Cell Culture. All cells were maintained in an incubator at 37 degrees C and 5% CO2 with 95% humidity. The PDC lines were cultured according to standard operating procedures established by the NCI PDMR (https://pdmr.cancer.gov). Table 3 of the manuscript, lists the cell lines along with the number of the three cell types plated to form the mct-spheroids and media for tumor cell growth. After thawing, all PDC lines, except 997537-175-T-J1-PDC and 415267-285-R-J2-PDC, were cultured in Matrigel-coated flasks prepared with a working solution of 1X Ham's F-12 nutrient mix, without supplementation (Thermo Fisher Scientific, cat. 11765054), 100 U/mL penicillin-streptomycin (Thermo Fisher Scientific, cat. 15140122), and 2.5% Matrigel (Corning Inc., Corning, NY, cat. 354248) for the first three passages. The two PDC lines 997537-175-T-J1-PDC and 415267-285-R-J2-PDC were cultured on uncoated flasks. The 857933-349-R-J2-PDC line was cultured in 6C/Colon 1B media containing advanced DMEM/F-12 (Thermo Fisher Scientific, cat. 12634028), 10 mM HEPES (Thermo Fisher Scientific, cat. 15630080), 1X GlutaMAX supplement (Thermo Fisher Scientific, cat. 35050061), 0.1 mg/mL primocin (InvivoGen, San Diego, CA, cat. ant-pm-2), 10% defined fetal bovine serum, heat inactivated (HyClone Laboratories Inc., Logan, UT, cat. SH30070.03HI), 50% L-WRN conditioned media (ATCC, cat. CRL-3276), 1.25 mM N-Acetyl-L-cysteine (Sigma-Aldrich, cat. A9165), 10 mM nicotinamide (Sigma-Aldrich, cat. N0636), 1X B-27 supplement (Thermo Fisher Scientific, cat. 17504044), 1X N-2 supplement (Thermo Fisher Scientific, cat. […]
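Also: spheroids exposed to compounds for one week before readout.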
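For viability, T/C in this document: percent of DMSO vehicle wells luminescence so 100% = untreated viability.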

Which IC50 (second compound 0.0316 µM) does the source give for `CC(=O)O[C@H]1C(=O)[C@@]2(C)[C@H]([C@H](OC(=O)c3ccccc3)[C@]3(O)C[C@H](OC(=O)[C@H](O)[C@@H](NC(=O)c4ccccc4)c4ccccc4)C(C)=C1C3(C)C)[C@]1(OC(C)=O)CO[C@@H]1C[C@@H]2O` + Nc1ccc(C#CCN(C(=O)Cc2ncc(C(F)(F)F)cc2C(F)(F)F)c2ccc(F)cc2)nn1 here?
Its IC50 is over 3 µM.

And the IC50 (second compound 0.1 µM)?
The IC50 was over 3 µM.

What about the IC50 (second compound 0.316 µM) of the same molecule?
The IC50 was under 0.00949 µM.

And the IC50 (second compound 1 µM)?
The IC50 was over 3 µM.

What about the IC50 (second compound 3.16 µM) of the same molecule?
Its IC50 is under 0.00949 µM.

What about the IC50 (second compound 10 µM) of the same molecule?
Its IC50 is over 3 µM.

And the viability, T/C (second compound 0.0316 µM, first compound 0.00949 µM)?
Its viability, T/C is 60.5%.

What about the viability, T/C (second compound 0.0316 µM, first compound 0.03 µM) of the same molecule?
Its viability, T/C is 56%.

What about the viability, T/C (second compound 0.0316 µM, first compound 0.0949 µM) of the same molecule?
Its viability, T/C is 48.5%.

And the viability, T/C (second compound 0.0316 µM, first compound 0.3 µM)?
Its viability, T/C is 51.8%.

What about the viability, T/C (second compound 0.0316 µM, first compound 0.949 µM) of the same molecule?
Its viability, T/C is 61.9%.

What about the viability, T/C (second compound 0.0316 µM, first compound 3 µM) of the same molecule?
Its viability, T/C is 63.6%.

What about the viability, T/C (second compound 0.1 µM, first compound 0.00949 µM) of the same molecule?
Its viability, T/C is 56.8%.

What about the viability, T/C (second compound 0.1 µM, first compound 0.03 µM) of the same molecule?
Its viability, T/C is 58.3%.

And the viability, T/C (second compound 0.1 µM, first compound 0.0949 µM)?
Its viability, T/C is 53.6%.

What about the viability, T/C (second compound 0.1 µM, first compound 0.3 µM) of the same molecule?
Its viability, T/C is 46.4%.

What about the viability, T/C (second compound 0.1 µM, first compound 0.949 µM) of the same molecule?
Its viability, T/C is 53%.

And the viability, T/C (second compound 0.1 µM, first compound 3 µM)?
The viability, T/C was 65.4%.

And the viability, T/C (second compound 0.316 µM, first compound 0.00949 µM)?
The viability, T/C was 53.3%.

And the viability, T/C (second compound 0.316 µM, first compound 0.03 µM)?
Its viability, T/C is 43.9%.

And the viability, T/C (second compound 0.316 µM, first compound 0.0949 µM)?
Its viability, T/C is 51.4%.

What about the viability, T/C (second compound 0.316 µM, first compound 0.3 µM) of the same molecule?
The viability, T/C was 53.4%.

And the viability, T/C (second compound 0.316 µM, first compound 0.949 µM)?
Its viability, T/C is 57%.

And the viability, T/C (second compound 0.316 µM, first compound 3 µM)?
The viability, T/C was 69.5%.

And the viability, T/C (second compound 1 µM, first compound 0.00949 µM)?
The viability, T/C was 59.8%.

And the viability, T/C (second compound 1 µM, first compound 0.03 µM)?
The viability, T/C was 46.4%.

And the viability, T/C (second compound 1 µM, first compound 0.0949 µM)?
The viability, T/C was 50.6%.

And the viability, T/C (second compound 1 µM, first compound 0.3 µM)?
Its viability, T/C is 51.9%.

And the viability, T/C (second compound 1 µM, first compound 0.949 µM)?
The viability, T/C was 56.8%.

And the viability, T/C (second compound 1 µM, first compound 3 µM)?
Its viability, T/C is 65.7%.

And the viability, T/C (second compound 3.16 µM, first compound 0.00949 µM)?
Its viability, T/C is 56.1%.

What about the viability, T/C (second compound 3.16 µM, first compound 0.03 µM) of the same molecule?
The viability, T/C was 46.7%.

And the viability, T/C (second compound 3.16 µM, first compound 0.0949 µM)?
The viability, T/C was 46.4%.

And the viability, T/C (second compound 3.16 µM, first compound 0.3 µM)?
The viability, T/C was 47.8%.

What about the viability, T/C (second compound 3.16 µM, first compound 0.949 µM) of the same molecule?
The viability, T/C was 74.8%.

And the viability, T/C (second compound 3.16 µM, first compound 3 µM)?
The viability, T/C was 66.1%.

And the viability, T/C (second compound 10 µM, first compound 0.00949 µM)?
The viability, T/C was 55.3%.

And the viability, T/C (second compound 10 µM, first compound 0.03 µM)?
The viability, T/C was 55.8%.

What about the viability, T/C (second compound 10 µM, first compound 0.0949 µM) of the same molecule?
The viability, T/C was 54%.

And the viability, T/C (second compound 10 µM, first compound 0.3 µM)?
Its viability, T/C is 65.8%.

And the viability, T/C (second compound 10 µM, first compound 0.949 µM)?
The viability, T/C was 52.6%.

And the viability, T/C (second compound 10 µM, first compound 3 µM)?
Its viability, T/C is 75%.
